From US8747537B2, “Ink containing heterocyclic azo dye, and dye for use in said ink” (Mitsubishi Chemical Corporation, priority 2010, dated 2014)

Assays:
[1] = Light fastness test (retention of dye after 2 hours of high-pressure mercury lamp irradiation); assay type: physicochemical; settings: 1 mg in 250 mL, 2 hours irradiation
Experimental: The light fastness of each dye was examined in the following manner. One milligram of each dye was dissolved in 250 mL of each of n-decane, tetradecane, Isopar M, and Isopar G, and the solution was irradiated with light for 2 hours using photoreaction apparatus UVL-400HA (400-W high-pressure mercury lamp), manufactured by Riko-Kagaku Sangyo Co., Ltd. During the irradiation, the vessel was cooled with a coolant to keep the internal temperature at 10-30° C. The retention of the dye was determined through the following calculation to evaluate the light fastness. Retention of dye=(absorbance at absorption-maximum wavelength after irradiation)/(absorbance at absorption-maximum wavelength before irradiation)

[2] = Solubility test in low-polarity solvents (saturated solution, λmax, solubility, εC); assay type: physicochemical; settings: for Solubility: saturated solution
Experimental: The solubility of each dye in n-decane, tetradecane, Isopar M, Isopar G, and decalin was examined in the following manner. Each dye was added to each solvent until a dissolution residue came to remain, and this mixture was subjected to a 30-minute ultrasonic treatment at 30 degrees. The resultant mixture was allowed to stand at 5° C. for 24 hours and then subjected to centrifugal filtration (centrifugal force, 5,200×g) with a 0.1-μm filter using a microcentrifuge. The saturated solution obtained was diluted to an adequate concentration, and the solubility of each dye was calculated from a relationship with an extinction coefficient determined beforehand. Furthermore, the value of the product of the molar extinction coefficient ε (Lmol^−1cm^−1) and the concentration C (molL^−1) of the saturated solution, εC, was determined.
Sudan Black B (manufactured by Tokyo Kasei Kogyo Co., Ltd.), which is a commercial oil-soluble black dye, was added to n-decane until a dissolution residue came to remain, and this mixture was subjected to a 30-minute ultrasonic treatment at 30 degrees. The resultant mixture was allowed to stand at 5° C. for 24 hours and then subjected to centrifugal filtration (centrifugal force, 5,200×g) with a 0.1-μm filter using a microcentrifuge. The saturated n-decane solution obtained was diluted to an adequate concentration, and the solubility of the dye was calculated from a relationship with an extinction coefficient determined beforehand.

[3] = n-decane, 400-W high-pressure mercury lamp
[4] = n-decane, stood at 5° C. for 24 hours, 0.1-μm filter

SMILES	Light fastness: retention of dye ([1]; Isopar G)	Light fastness: retention of dye ([1]; Isopar M)	Light fastness: retention of dye [1, 3]	Light fastness: retention of dye ([1]; tetradecane)	εC ([2]; Isopar G)	λmax (absorption-maximum wavelength) ([2]; Isopar G solution)	Solubility ([2]; Isopar G)	εC ([2]; Isopar M)	λmax (absorption-maximum wavelength) ([2]; Isopar M solution)	Solubility ([2]; Isopar M)	εC ([2]; decalin)	λmax (absorption-maximum wavelength) ([2]; decalin solution)	Solubility ([2]; decalin)	εC (molar extinction coefficient × concentration of saturated solution) ([2]; n-decane)	λmax (absorption-maximum wavelength) ([2]; n-decane solution)	Solubility [2, 4]	εC ([2]; tetradecane)	λmax (absorption-maximum wavelength) ([2]; tetradecane solution)	Solubility ([2]; tetradecane)
CCCCC(CC)CN(CC(CC)CCCC)c1ccc(/N=N/c2snc(CC)c2C#N)c(C)c1 (stereo not drawn) [Dye 4]	98%	95%	96%	82%	4900 cm⁻¹	526 nm	7.4%	6000 cm⁻¹	530 nm	8.51%	5200 cm⁻¹	534 nm	6.5%	5700 cm⁻¹	527 nm	6.6%	5200 cm⁻¹	530 nm	6.8%
CCCCC(CC)CN(CC(CC)CCCC)c1ccc(/N=N/c2sc(C(=O)OCC)c(C)c2C(=O)OCC)c(NC(=O)CC)c1 (stereo not drawn) [Dye 7]	98%	87%	98%	81%	6000 cm⁻¹	535 nm	10%	6300 cm⁻¹	536 nm	10%				5700 cm⁻¹	536 nm	10.3%	5400 cm⁻¹	538 nm	9.7%
CCCCC(CC)CN(CC(CC)CCCC)c1ccc(N=Nc2snc(CC)c2C#N)c(NC(C)=O)c1 (stereo not drawn) [Dye 10]			99%		18600 cm⁻¹	542 nm	20%	18600 cm⁻¹	542 nm	20%	6600 cm⁻¹	546 nm	6.7%	17000 cm⁻¹	543 nm	20%	16700 cm⁻¹	544 nm	19%
